Test results reported in patent US20190298669A1 (priority 2018, published 2019).

System: A/Mississippi/3/2001 H275Y mutant (H1N1)
Type: cell-based, influenza A virus

**Q.** With CCOC(=O)C1=C[C@@H](OC(CC)CC)[C@H](NC(C)=O)[C@@H](N)C1 [oseltamivir] as the compound, how does the reduction of virus read?
**A.** 43%
